# In patent US11077100B2, “Tetrahydroquinoline derivatives as P2X7 receptor antagonists” (RaQualia Pharma Inc., priority 2017, dated 2021):
# Key:
# human P2X7 = human P2X7 (Homo sapiens (Human), UniProt Q99572); experiment: Human P2X7 functional assay (Ca2+ influx, Fluo-4, FDSS); type: cell-based; settings: antagonistic activity with respect to the human P2X7 receptor; BzATP final concentration 80 microM
# How it was run: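 HEK293 cells stably expressing C-terminally FLAG-tagged human P2X7, loaded with Fluo-4. Compounds were preincubated for 10 min at room temperature, then 80 μM BzATP (final) was added and Ca2+ fluorescence read at 540 nm (480 nm excitation) by FDSS. IC50 values come from 7-point curves, duplicate wells.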
# rat P2X7 = rat P2X7 (Rattus norvegicus (Rat), UniProt Q64663); experiment: Rat P2X7 functional assay (Ca2+ influx, Fluo-4, FDSS); type: cell-based; settings: HEK293 cells stably expressing rat P2X7; BzATP final 10 microM; 7-point dose-response; read-out: Antagonistic activities with respect to the rat P2X7 receptor (IC50)
# Sequence of rat P2X7 (Q64663 whole entry): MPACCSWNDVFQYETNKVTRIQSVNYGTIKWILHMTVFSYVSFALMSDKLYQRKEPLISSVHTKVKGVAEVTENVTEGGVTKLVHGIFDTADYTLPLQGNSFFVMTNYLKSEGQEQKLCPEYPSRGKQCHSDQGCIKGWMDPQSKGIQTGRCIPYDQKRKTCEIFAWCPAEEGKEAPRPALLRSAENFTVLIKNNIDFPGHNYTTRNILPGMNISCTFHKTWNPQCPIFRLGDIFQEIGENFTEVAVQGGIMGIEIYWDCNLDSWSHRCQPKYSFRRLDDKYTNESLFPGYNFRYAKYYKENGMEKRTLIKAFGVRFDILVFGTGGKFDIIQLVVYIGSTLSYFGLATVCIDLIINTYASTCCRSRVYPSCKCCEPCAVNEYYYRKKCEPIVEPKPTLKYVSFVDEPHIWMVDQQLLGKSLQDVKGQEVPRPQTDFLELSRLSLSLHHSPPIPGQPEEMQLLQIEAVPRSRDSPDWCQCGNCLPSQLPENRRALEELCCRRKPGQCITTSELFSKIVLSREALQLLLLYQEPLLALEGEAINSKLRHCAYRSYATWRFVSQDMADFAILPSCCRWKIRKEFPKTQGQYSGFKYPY
# How it was run: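 HEK293 cells stably expressing rat P2X7 (5,000/well, plated 24 h before) loaded with Fluo-4; compounds preincubated 10 min at room temperature, then Ca2+ rise after 10 microM BzATP (final) read on FDSS (480/540 nm). IC50 from 7-point curves, duplicate wells.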
# Sequence of human P2X7 (Q99572 whole entry): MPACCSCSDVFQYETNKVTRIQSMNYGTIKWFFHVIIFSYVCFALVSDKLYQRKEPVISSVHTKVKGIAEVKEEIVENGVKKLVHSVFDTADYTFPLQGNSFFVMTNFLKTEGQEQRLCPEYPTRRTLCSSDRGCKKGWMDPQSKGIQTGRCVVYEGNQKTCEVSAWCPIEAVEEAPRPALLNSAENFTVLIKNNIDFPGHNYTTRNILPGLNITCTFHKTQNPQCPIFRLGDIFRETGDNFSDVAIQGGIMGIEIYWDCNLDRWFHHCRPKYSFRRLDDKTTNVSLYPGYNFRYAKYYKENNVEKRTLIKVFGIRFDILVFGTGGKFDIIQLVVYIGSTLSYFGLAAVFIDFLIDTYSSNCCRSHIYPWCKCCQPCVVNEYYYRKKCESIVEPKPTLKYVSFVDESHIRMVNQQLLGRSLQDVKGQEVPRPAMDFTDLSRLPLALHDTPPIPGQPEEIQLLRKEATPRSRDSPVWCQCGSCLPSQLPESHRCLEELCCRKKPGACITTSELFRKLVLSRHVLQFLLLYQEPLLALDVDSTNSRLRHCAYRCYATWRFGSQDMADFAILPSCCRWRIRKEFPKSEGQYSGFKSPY
IC50 (human P2X7),IC50 (rat P2X7),Compound
50 to 100 nM,< 1000 nM,"O=C(NCc1ccccc1C(F)(F)F)[C@]1(F)CC[C@H](O)c2ncccc21 [Example 199, (5S,8S)-5-fluoro-8-hydroxy-N-(2-(trifluoromethyl)benzyl)-5,6,7,8-tetrahydroquinoline-5-carboxamide]"
50 to 100 nM,< 1000 nM,"N#Cc1ccc(CNC(=O)[C@]2(F)CC[C@H](O)c3ncccc32)c(F)c1 [Example 201, (5S,8S)-N-(4-cyano-2-fluorobenzyl)-5-fluoro-8-hydroxy-5,6,7,8-tetrahydroquinoline-5-carboxamide]"
50 to 100 nM,< 1000 nM,"O=C(NCc1cc(F)cc(Cl)c1)[C@]1(F)CC[C@H](O)c2ncccc21 [Example 203, (5S,8S)-N-(3-chloro-5-fluorobenzyl)-5-fluoro-8-hydroxy-5,6,7,8-tetrahydroquinoline-5-carboxamide]"
50 to 100 nM,< 1000 nM,"O=C(NCc1cccc(Cl)c1)[C@]1(F)CC[C@H](O)c2ncccc21 [Example 205, (5S,8S)-N-(3-chlorobenzyl)-5-fluoro-8-hydroxy-5,6,7,8-tetrahydroquinoline-5-carboxamide]"
101 to 300 nM,< 1000 nM,"O=C(NCc1ccc(Cl)c(F)c1)[C@]1(F)CC[C@H](O)c2ncccc21 [Example 206, (5S,8S)-N-(4-chloro-3-fluorobenzyl)-5-fluoro-8-hydroxy-5,6,7,8-tetrahydroquinoline-5-carboxamide]"
101 to 300 nM,< 1000 nM,"O=C(NCc1cccc(F)c1F)[C@]1(F)CC[C@H](O)c2ncccc21 [Example 208, (5S,8S)-N-(2,3-difluorobenzyl)-5-fluoro-8-hydroxy-5,6,7,8-tetrahydroquinoline-5-carboxamide]"
301 to 1000 nM,< 1000 nM,"O=C(NCc1cc(F)cc(F)c1)[C@]1(F)CC[C@H](O)c2ncccc21 [Example 221, (5S,8S)-N-(3,5-difluorobenzyl)-5-fluoro-8-hydroxy-5,6,7,8-tetrahydroquinoline-5-carboxamide]"
< 50 nM,< 1000 nM,"O=C(NC1COc2cc(Cl)cc(Cl)c21)[C@]1(F)CC[C@H](O)c2ncccc21 (stereo partly drawn) [Example 229, (5S,8S)-N-(4,6-dichloro-2,3-dihydrobenzofuran-3-yl)-5-fluoro-8-hydroxy-5,6,7,8-tetrahydroquinoline-5-carboxamide]"
< 50 nM,< 1000 nM,"O=C(NC1CCOc2cc(Cl)cc(Cl)c21)[C@]1(F)CC[C@H](O)c2ncccc21 (stereo partly drawn) [Example 230, (5S,8S)-N-(5,7-dichlorochroman-4-yl)-5-fluoro-8-hydroxy-5,6,7,8-tetrahydroquinoline-5-carboxamide]"
< 50 nM,< 1000 nM,"CC(NC(=O)[C@]1(F)CC[C@H](O)c2ncccc21)C12CC3CC(CC(C3)C1)C2 (stereo partly drawn) [Example 231, (5S,8S)-N-(1-(adamantan-1-yl)ethyl)-5-fluoro-8-hydroxy-5,6,7,8-tetrahydroquinoline-5-carboxamide]"
< 50 nM,< 1000 nM,"O=C(NCC(c1ccc(Cl)cc1)N1CCC(F)(F)CC1)[C@]1(F)CC[C@H](O)c2ncccc21 (stereo partly drawn) [Example 232, (5S,8S)-N-(2-(4-chlorophenyl)-2-(4,4-difluoropiperidin-1-yl)ethyl)-5-fluoro-8-hydroxy-5,6,7,8-tetrahydroquinoline-5-carboxamide]"
101 to 300 nM,< 1000 nM,"O=C(NC1COc2ccccc2C1)[C@]1(F)CC[C@H](O)c2ncccc21 (stereo partly drawn) [Example 233, (5S,8S)-N-(chroman-3-yl)-5-fluoro-8-hydroxy-5,6,7,8-tetrahydroquinoline-5-carboxamide]"
301 to 1000 nM,< 1000 nM,"CC(CNC(=O)[C@]1(F)CC[C@H](O)c2ncccc21)c1ccc(Cl)cc1 (stereo partly drawn) [Example 234, (5S,8S)-N-(2-(4-chlorophenyl)propyl)-5-fluoro-8-hydroxy-5,6,7,8-tetrahydroquinoline-5-carboxamide]"
< 50 nM,< 1000 nM,"C[C@@H](NC(=O)[C@]1(F)CC[C@H](O)c2ncccc21)c1ccc(F)cc1Cl [Example 237, (5S,8S)-N-((R)-1-(2-chloro-4-fluorophenyl)ethyl)-5-fluoro-8-hydroxy-5,6,7,8-tetrahydroquinoline-5-carboxamide]"
< 50 nM,< 1000 nM,"O=C(NC1CC1c1ccc(Cl)cc1Cl)[C@]1(F)CC[C@H](O)c2ncccc21 (stereo partly drawn) [Example 238, (5S,8S)-N-((trans)-2-(2,4-dichlorophenyl)cyclopropyl)-5-fluoro-8-hydroxy-5,6,7,8-tetrahydroquinoline-5-carboxamide]"
101 to 300 nM,< 1000 nM,"C[C@H](NC(=O)[C@]1(F)CC[C@H](O)c2ncccc21)c1ccc(F)cc1Cl [Example 239, (5S,8S)-N-((S)-1-(2-chloro-4-fluorophenyl)ethyl)-5-fluoro-8-hydroxy-5,6,7,8-tetrahydroquinoline-5-carboxamide]"

IC50 (human P2X7),IC50 (rat P2X7),Compound
301 to 1000 nM,< 1000 nM,"O=C(NCC1(c2ccc(Cl)cc2Cl)CCOCC1)[C@]1(F)CC[C@H](O)c2ncccc21 [Example 240, (5S,8S)-N-((4-(2,4-dichlorophenyl)tetrahydro-2H-pyran-4-yl)methyl)-5-fluoro-8-hydroxy-5,6,7,8-tetrahydroquinoline-5-carboxamide]"
< 50 nM,< 1000 nM,"O=C(NCc1ccc(Cl)cc1Cl)[C@]1(F)CC[C@H](O)c2ncc(F)cc21 [Example 241, (5S,8S)-N-(2,4-dichlorobenzyl)-3,5-difluoro-8-hydroxy-5,6,7,8-tetrahydroquinoline-5-carboxamide]"
< 50 nM,< 1000 nM,"O=C(NCc1ccc(F)cc1Cl)[C@]1(F)CC[C@H](O)c2ncc(F)cc21 [Example 242, (5S,8S)-N-(2-chloro-4-fluorobenzyl)-3,5-difluoro-8-hydroxy-5,6,7,8-tetrahydroquinoline-5-carboxamide]"
< 50 nM,< 1000 nM,"O=C(NCc1ccc(Cl)cc1Cl)[C@]1(F)CC[C@H](O)c2c1ccc[n+]2[O-] [Example 245, (5S,8S)-5-((2,4-dichlorobenzyl)carbamoyl)-5-fluoro-8-hydroxy-5,6,7,8-tetrahydroquinoline 1-oxide]"
< 50 nM,< 1000 nM,"O=C1CC[C@](F)(C(=O)NCc2cccc(C(F)(F)F)c2Cl)c2cccnc21 [Example 246, (R)-N-(2-chloro-3-(trifluoromethyl)benzyl)-5-fluoro-8-oxo-5,6,7,8-tetrahydroquinoline-5-carboxamide]"
< 50 nM,< 1000 nM,"O=C1CC[C@@](F)(C(=O)NCc2cccc(C(F)(F)F)c2Cl)c2cccnc21 [Example 247, (S)-N-(2-chloro-3-(trifluoromethyl)benzyl)-5-fluoro-8-oxo-5,6,7,8-tetrahydroquinoline-5-carboxamide]"
< 50 nM,< 1000 nM,"O=C1CC[C@@](F)(C(=O)NCc2ccc(Cl)cc2Cl)c2cccnc21 [Example 248, (S)-N-(2,4-dichloro-benzyl)-5-fluoro-8-oxo-5,6,7,8-tetrahydroquinoline-5-carboxamide]"
50 to 100 nM,< 1000 nM,"O=C1CC[C@@](F)(C(=O)NCc2ccc(F)cc2Cl)c2cccnc21 [Example 249, (S)-N-(2-chloro-4-fluorobenzyl)-5-fluoro-8-oxo-5,6,7,8-tetra-hydroquinoline-5-carboxamide]"
101 to 300 nM,< 1000 nM,"O=C1CC[C@@](F)(C(=O)NCc2cccc(F)c2Cl)c2cccnc21 [Example 250, (S)-N-(2-chloro-3-fluorobenzyl)-5-fluoro-8-oxo-5,6,7,8-tetrahydro-quinoline-5-carboxamide]"
< 50 nM,< 1000 nM,"O=C1CC[C@@](F)(C(=O)NCc2c(F)cc(Cl)cc2Cl)c2cccnc21 [Example 251, (S)-N-(2,4-dichloro-6-fluorobenzyl)-5-fluoro-8-oxo-5,6,7,8-tetrahydro-quinoline-5-carboxamide]"
< 50 nM,< 1000 nM,"O=C1CC[C@@](F)(C(=O)NCc2cccc(Cl)c2Cl)c2cccnc21 [Example 252, (S)-N-(2,3-dichloro-benzyl)-5-fluoro-8-oxo-5,6,7,8-tetrahydroquinoline-5-carboxamide]"
< 50 nM,< 1000 nM,"O=C1CC[C@@](F)(C(=O)NCc2ccc(C(F)(F)F)cc2Cl)c2cccnc21 [Example 253, (S)-N-(2-chloro-4-(trifluoromethyl)benzyl)-5-fluoro-8-oxo-5,6,7,8-tetrahydroquinoline-5-carboxamide]"
301 to 1000 nM,< 1000 nM,"O=C1CC[C@@](F)(C(=O)NCc2ccc(F)c(F)c2F)c2cccnc21 [Example 254, (S)-5-fluoro-8-oxo-N-(2,3,4-trifluorobenzyl)-5,6,7,8-tetrahydro-quinoline-5-carboxamide]"
< 50 nM,< 1000 nM,"C[C@]1(O)CC[C@@](F)(C(=O)NCc2ccc(Cl)cc2Cl)c2cccnc21 [Example 256, (5S,8S)-N-(2,4-dichlorobenzyl)-5-fluoro-8-hydroxy-8-methyl-5,6,7,8-tetrahydroquinoline-5-carboxamide]"
101 to 300 nM,< 1000 nM,"C[C@@]1(O)CC[C@@](F)(C(=O)NCc2ccc(Cl)cc2Cl)c2cccnc21 [Example 257, (5S,8R)-N-(2,4-dichlorobenzyl)-5-fluoro-8-hydroxy-8-methyl-5,6,7,8-tetrahydroquinoline-5-carboxamide]"
< 50 nM,< 1000 nM,"C[C@]1(O)CC[C@@](F)(C(=O)NCc2ccc(F)c(F)c2F)c2cccnc21 [Example 258, (5S,8S)-5-fluoro-8-hydroxy-8-methyl-N-(2,3,4-trifluorobenzyl)-5,6,7,8-tetrahydroquinoline-5-carboxamide]"
